According to patent US10093654B2, “Therapeutically active compounds and their methods of use” (Agios Pharmaceuticals, Inc., priority 2013, dated 2018):
Several values for one entry are separate records, joined by “and”; a condition that tells them apart may be missing. Equal entries are not always repeated.

Tests used:
[1] = system: CYP1A2; assay: CYP1A2 induction; format: in vitro ADME, human
[2] = molecular target: CYP2C8 (Homo sapiens, UniProt P10632); assay: Direct inhibition of CYP2C8; format: in vitro ADME
[3] = system: CYP2B6; assay: CYP2B6 induction; format: in vitro ADME, human
[4] = system: human CYP3A4; assay: CYP3A4 induction; format: in vitro ADME
[5] = system: CYP enzymes; assay: Time-dependent or metabolism-dependent inhibition of CYP enzymes; format: in vitro ADME, human
[6] = molecular target: CYP1A2 (Homo sapiens, UniProt P05177); assay: Direct inhibition of CYP1A2; format: in vitro ADME
[7] = molecular target: CYP2C9 (Homo sapiens, UniProt P11712); assay: Direct inhibition of CYP2C9; format: in vitro ADME
[8] = system: TF-1/IDH2 (R140Q) mutant cells; assay: 2-HG levels in TF-1/IDH2 (R140Q) mutant cells; format: cell-based
[9] = system: TF-1 IDH2 (R140Q) cells; assay: GM-CSF-independent growth in TF-1 IDH2 (R140Q) cells; format: cell-based; conditions: 1 μM for 7 days
[10] = system: AMM7577-P2 (HuKemia® model); assay: Survival in mutant positive AML mouse model
Text: 40 NOD/SCID mice are engrafted on Day 1 with 2*10^6/mouse of AMM7577-P2 (HuKemia® model, Crown BioScience Inc.) frozen cells that may be thawed out from liquid N2. Peripheral blood samples are collected weekly for FACS analysis of human leukemia cells starting at Week 3 post-cell inoculation. Plasma and urine samples are collected weekly starting at Week 3 until the termination point. When the tumor growth is about 10% of human CD45+ cell in peripheral blood samples, the engrafted mice may be randomly allocated into 5 groups using the treatment schedule denoted in Table 1.

[11] = system: primary human IDH2 (R140Q) mutant AML cells; assay: Ex vivo treatment of primary human AML blast cells; format: cell-based; conditions: for percentage of blast cells: from 90%, 500, 1000, 5000 nM
Text: Cells are counted at Days 3, 6, 9, and 13 and normalized to DMSO control.

[12] = system: IDH2 (R140Q) in TF-1 cells; assay: Histone hypermethylation, Western blot, TF-1 IDH2 (R140Q) cells; format: cell-based
[13] = system: U87MG IDH2 (R140Q) tumor; assay: PK/PD study in mouse xenograft model, tumor 2-HG; format: in vivo, female nude mice
Experimental: Pharmacokinetic/pharmacodynamic (PK/PD) studies are conducted in female nude mice inoculated subcutaneously with U87MG IDH2 (R140Q) tumor.

[14] = system: TF-1 IDH2 (R140Q) mutant cells; assay: Differentiation block, EPO-induced expression in TF-1 IDH2 (R140Q) mutant cells; format: cell-based; conditions: when 2-HG levels fall below 1 mM

Sequence of CYP1A2 (Homo sapiens, UniProt P05177) (P05177 whole entry): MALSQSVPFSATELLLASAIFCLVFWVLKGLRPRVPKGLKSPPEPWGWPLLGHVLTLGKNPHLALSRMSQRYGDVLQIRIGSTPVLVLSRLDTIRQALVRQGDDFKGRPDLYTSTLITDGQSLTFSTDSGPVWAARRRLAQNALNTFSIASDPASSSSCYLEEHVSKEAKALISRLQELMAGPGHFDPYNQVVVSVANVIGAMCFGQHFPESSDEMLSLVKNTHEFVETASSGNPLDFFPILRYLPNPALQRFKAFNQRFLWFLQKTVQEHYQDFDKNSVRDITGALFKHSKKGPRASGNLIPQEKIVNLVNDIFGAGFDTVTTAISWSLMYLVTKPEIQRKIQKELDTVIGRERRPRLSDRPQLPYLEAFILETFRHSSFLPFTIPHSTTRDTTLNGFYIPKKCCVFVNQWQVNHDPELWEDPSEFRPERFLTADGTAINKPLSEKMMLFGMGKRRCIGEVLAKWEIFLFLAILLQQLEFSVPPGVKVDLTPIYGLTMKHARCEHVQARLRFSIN
Sequence of CYP2C8 (P10632 whole entry): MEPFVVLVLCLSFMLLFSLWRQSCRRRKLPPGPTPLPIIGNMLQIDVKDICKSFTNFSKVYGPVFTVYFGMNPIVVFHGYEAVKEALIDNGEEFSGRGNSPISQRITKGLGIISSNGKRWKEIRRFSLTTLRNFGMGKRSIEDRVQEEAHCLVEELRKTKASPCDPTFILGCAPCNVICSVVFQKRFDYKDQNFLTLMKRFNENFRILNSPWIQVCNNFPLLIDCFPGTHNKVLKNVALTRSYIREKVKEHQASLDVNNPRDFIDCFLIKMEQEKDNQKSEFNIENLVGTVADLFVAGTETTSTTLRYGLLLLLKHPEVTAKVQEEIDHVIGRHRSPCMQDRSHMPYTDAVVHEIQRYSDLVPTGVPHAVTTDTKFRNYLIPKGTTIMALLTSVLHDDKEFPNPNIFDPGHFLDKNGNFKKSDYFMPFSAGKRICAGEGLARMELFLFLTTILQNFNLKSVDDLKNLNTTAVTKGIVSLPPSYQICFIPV
Sequence of CYP2C9 (P11712 whole entry): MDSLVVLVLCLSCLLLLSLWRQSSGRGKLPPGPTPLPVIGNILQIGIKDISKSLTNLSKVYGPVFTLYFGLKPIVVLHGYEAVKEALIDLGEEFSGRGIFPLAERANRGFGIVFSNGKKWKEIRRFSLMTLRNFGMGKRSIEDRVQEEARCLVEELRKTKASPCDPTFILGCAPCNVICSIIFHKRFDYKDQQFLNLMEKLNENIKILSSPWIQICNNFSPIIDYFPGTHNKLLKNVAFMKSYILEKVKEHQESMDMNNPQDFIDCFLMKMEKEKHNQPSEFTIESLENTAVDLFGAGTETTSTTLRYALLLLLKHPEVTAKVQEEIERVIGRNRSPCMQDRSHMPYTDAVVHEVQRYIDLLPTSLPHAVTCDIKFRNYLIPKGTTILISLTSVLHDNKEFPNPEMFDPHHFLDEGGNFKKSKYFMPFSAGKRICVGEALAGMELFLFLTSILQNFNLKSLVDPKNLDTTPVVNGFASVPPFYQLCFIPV

SMILES: Nc1nc(Nc2ccnc(C(F)(F)F)c2)nc(-c2cccc(C(F)(F)F)n2)n1 [compound 2, 6-(6-(trifluoromethyl)pyridin-2-yl)-N2-(2-(trifluoromethyl)pyridin-4-yl)-1,3,5-triazine-2,4-diamine]
- induction of CYP1A2 [1]: not observed
- IC50 [2]: 5300 nM
- induction of CYP2B6 [3]: not observed
- induction of human CYP3A4 [4]: weak inducers
- victim of strong CYP3A4 inducers such as rifampicin ([4]; used as a marker substrate): neither compound appears to be a victim
- time-dependent or metabolism-dependent inhibition of CYP enzymes [5]: Neither compound shows time-dependent or metabolism-dependent inhibition
- IC50 [6]: 430 nM
- IC50 [7]: 30000 nM

SMILES: CC(C)(O)CNc1nc(Nc2ccnc(C(F)(F)F)c2)nc(-c2cccc(C(F)(F)F)n2)n1 [compound 3, 2-Methyl-1-[(4-[6-(trifluoromethyl)pyridin-2-yl]-6-{[2-(trifluoromethyl)pyridin-4-yl]amino}-1,3,5-triazin-2-yl)amino]propan-2-ol]
- intracellular levels of 2-HG ([8]; 5 μM, 7 days, 15.5 mM with DMSO): 0.08 mM
- inhibition at 1 µM ([8]; 168 h, read-out: 2-HG production inhibited): > 99%
- IC90 ([8]; 168 h, read-out: inhibitory concentration, 90% (IC90) for 2-HG inhibition): 160 nM
- IC50 ([8]; 168 h, read-out: intracellular IC50 for 2-HG inhibition): 16 nM
- GM-CSF independent growth [9]: reversed
- Survival at study termination ([10]; 5 mg/kg PO/BID, Day 48-84): 4/9
- Survival at study termination ([10]; 15 mg/kg PO/BID, Day 48-84): 6/9
- Survival at study termination ([10]; 45 mg/kg PO/BID, Day 48-84): 9 and 9/9
- leukemia and differentiation in treated animals ([10]; 5, 15, 45 mg/kg): dose dependent decrease in leukemia and evidence of normal differentiation
- survival in comparison to cytarabine ([10]; 5, 15, 45 mg/kg): dose dependent survival advantage
- population of more differentiated cells (metamyelocytes) ([11]; 9 days ex vivo): clear increase
- percentage of blast cells ([11]; by Day 6): 55%
- percentage of blast cells ([11]; by Day 9): 40%
- histone hypermethylation induced by IDH2 (R140Q) ([12]; Western blot, H3K4me3, H3K9me3, H3K27me3, H3K36me3): reversed
- dose needed to induce changes in histone methylation ([12]; within the first 7 days): 200 nM
- EAUC90[0-12 hr], AUC0-12 hr for sustained 90% tumor 2-HG inhibition ([13]; estimated): approximately 5000 hr·ng/mL
- EAUC97[0-12 h], AUC0-12 hr for sustained 97% tumor 2-HG inhibition ([13]; estimated): ~15200 ng·h/mL
- tumor 2-HG concentration ([13]; following a single oral dose): decreases rapidly
- EPO-induced expression of hemoglobin gamma ½ and Kruppel-like factor 1 (KLF-1) [14]: restores

SMILES: Nc1ccn([C@@H]2O[C@H](CO)[C@@H](O)[C@@H]2O)c(=O)n1 [cytarabine, reference compound]
- Survival at study termination ([10]; 2 mg/kg, 5 Days, Day 48-52): 0/4
